From PubChem BioAssay (NCI)
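How tested: cells in 96-well plates exposed to compound for 48 hours at five concentrations. TGI is the concentration that stops growth completely.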

Tests used:
Test in all cases: NCI tumour cell line growth inhibition, 48 h
A498 renal = test system: A498 renal
HT29 colon = test system: HT29 colon
M14 melanoma = test system: M14 melanoma
HCT-116 colon = test system: HCT-116 colon
NCI-H522 lung = test system: NCI-H522 lung
OVCAR-8 ovarian = test system: OVCAR-8 ovarian
SK-MEL-5 melanoma = test system: SK-MEL-5 melanoma
SF-268 CNS = test system: SF-268 CNS
KM12 colon = test system: KM12 colon
T-47D breast = test system: T-47D breast
TK-10 renal = test system: TK-10 renal
CCRF-CEM leukemia = test system: CCRF-CEM leukemia
MALME-3M melanoma = test system: MALME-3M melanoma
HS 578T breast = test system: HS 578T breast
SF-295 CNS = test system: SF-295 CNS
OVCAR-4 ovarian = test system: OVCAR-4 ovarian
SW-620 colon = test system: SW-620 colon
A549 NSCLC = test system: A549 NSCLC
SR leukemia = test system: SR leukemia
SN12C renal = test system: SN12C renal
HCC-2998 colon = test system: HCC-2998 colon
HOP-62 NSCLC = test system: HOP-62 NSCLC
MOLT-4 leukemia = test system: MOLT-4 leukemia
CAKI-1 renal = test system: CAKI-1 renal
RXF 393 renal = test system: RXF 393 renal
DU-145 prostate = test system: DU-145 prostate
UACC-62 melanoma = test system: UACC-62 melanoma
IGROV1 ovarian = test system: IGROV1 ovarian
RPMI-8226 leukemia = test system: RPMI-8226 leukemia
SK-MEL-2 melanoma = test system: SK-MEL-2 melanoma
OVCAR-3 ovarian = test system: OVCAR-3 ovarian
COLO 205 colon = test system: COLO 205 colon
NCI-H23 lung = test system: NCI-H23 lung
SK-OV-3 ovarian = test system: SK-OV-3 ovarian
MCF7 breast = test system: MCF7 breast
LOX IMVI melanoma = test system: LOX IMVI melanoma
HOP-92 NSCLC = test system: HOP-92 NSCLC
UACC-257 melanoma = test system: UACC-257 melanoma
HL-60(TB) leukemia = test system: HL-60(TB) leukemia
K-562 leukemia = test system: K-562 leukemia
NCI-H226 lung = test system: NCI-H226 lung
SNB-19 CNS = test system: SNB-19 CNS
U251 CNS = test system: U251 CNS
UO-31 renal = test system: UO-31 renal
SF-539 CNS = test system: SF-539 CNS
HCT-15 colon = test system: HCT-15 colon
NCI-H460 lung = test system: NCI-H460 lung
OVCAR-5 ovarian = test system: OVCAR-5 ovarian
NCI/ADR-RES ovarian = test system: NCI/ADR-RES ovarian
SK-MEL-28 melanoma = test system: SK-MEL-28 melanoma
MDA-N = test system: MDA-N
PC-3 prostate = test system: PC-3 prostate
EKVX NSCLC = test system: EKVX NSCLC
786-0 renal = test system: 786-0 renal
MDA-MB-435 = test system: MDA-MB-435
MDA-MB-231 breast = test system: MDA-MB-231 breast
BT-549 breast = test system: BT-549 breast
ACHN renal = test system: ACHN renal

COC(=O)[C@]12CC[C@H]3CN(C(=O)OCc4ccccc4)[C@H]([C@H]31)[C@H](C(=O)OCC[Si](C)(C)C)N2S(=O)(=O)c1ccc(C)cc1
TGI (A498 renal): > 100 µM
TGI (HT29 colon): > 100 µM
TGI (M14 melanoma): > 100 µM
TGI (HCT-116 colon): > 100 µM
TGI (NCI-H522 lung): > 100 µM
TGI (OVCAR-8 ovarian): > 100 µM
TGI (SK-MEL-5 melanoma): > 100 µM
TGI (SF-268 CNS): > 100 µM
TGI (KM12 colon): > 100 µM
TGI (T-47D breast): > 100 µM
TGI (TK-10 renal): > 100 µM
TGI (CCRF-CEM leukemia): > 100 µM
TGI (MALME-3M melanoma): > 100 µM
TGI (HS 578T breast): > 100 µM
TGI (SF-295 CNS): > 100 µM
TGI (OVCAR-4 ovarian): > 100 µM
TGI (SW-620 colon): > 100 µM
TGI (A549 NSCLC): > 100 µM
TGI (SR leukemia): > 100 µM
TGI (SN12C renal): > 100 µM
TGI (HCC-2998 colon): > 100 µM
TGI (HOP-62 NSCLC): > 100 µM
TGI (MOLT-4 leukemia): > 100 µM
TGI (CAKI-1 renal): > 100 µM
TGI (RXF 393 renal): > 100 µM
TGI (DU-145 prostate): > 100 µM
TGI (UACC-62 melanoma): > 100 µM
TGI (IGROV1 ovarian): > 100 µM
TGI (RPMI-8226 leukemia): > 100 µM
TGI (SK-MEL-2 melanoma): > 100 µM
TGI (OVCAR-3 ovarian): > 100 µM
TGI (COLO 205 colon): > 100 µM
TGI (NCI-H23 lung): > 100 µM
TGI (SK-OV-3 ovarian): > 100 µM
TGI (MCF7 breast): > 100 µM
TGI (LOX IMVI melanoma): > 100 µM
TGI (HOP-92 NSCLC): 9.68 µM
TGI (UACC-257 melanoma): > 100 µM
TGI (HL-60(TB) leukemia): > 100 µM
TGI (K-562 leukemia): > 100 µM
TGI (NCI-H226 lung): > 100 µM
TGI (SNB-19 CNS): > 100 µM
TGI (U251 CNS): > 100 µM
TGI (UO-31 renal): > 100 µM
TGI (SF-539 CNS): > 100 µM
TGI (HCT-15 colon): > 100 µM
TGI (NCI-H460 lung): > 100 µM
TGI (OVCAR-5 ovarian): > 100 µM
TGI (NCI/ADR-RES ovarian): > 100 µM
TGI (SK-MEL-28 melanoma): > 100 µM
TGI (MDA-N): > 100 µM
TGI (PC-3 prostate): > 100 µM
TGI (EKVX NSCLC): > 100 µM
TGI (786-0 renal): > 100 µM
TGI (MDA-MB-435): > 100 µM
TGI (MDA-MB-231 breast): > 100 µM
TGI (BT-549 breast): > 100 µM
TGI (ACHN renal): > 100 µM

CC(C)(C)C(=O)CC1(O)C=C(O)C(O)(CC(=O)C(C)(C)C)O1 (centres undefined)
TGI (A498 renal): > 100 µM
TGI (HT29 colon): > 100 µM
TGI (M14 melanoma): 51.1 µM
TGI (HCT-116 colon): 55.3 µM
TGI (NCI-H522 lung): 80 µM
TGI (OVCAR-8 ovarian): > 100 µM
TGI (SK-MEL-5 melanoma): > 100 µM
TGI (SF-268 CNS): > 100 µM
TGI (KM12 colon): > 100 µM
TGI (T-47D breast): > 100 µM
TGI (TK-10 renal): > 100 µM
TGI (CCRF-CEM leukemia): > 100 µM
TGI (MALME-3M melanoma): > 100 µM
TGI (HS 578T breast): > 100 µM
TGI (SF-295 CNS): > 100 µM
TGI (OVCAR-4 ovarian): 64.1 µM
TGI (A549 NSCLC): > 100 µM
TGI (SR leukemia): > 100 µM
TGI (SN12C renal): > 100 µM
TGI (HCC-2998 colon): > 100 µM
TGI (HOP-62 NSCLC): 64.7 µM
TGI (MOLT-4 leukemia): > 100 µM
TGI (CAKI-1 renal): 67.6 µM
TGI (RXF 393 renal): 45.1 µM
TGI (DU-145 prostate): > 100 µM
TGI (UACC-62 melanoma): 97.1 µM
TGI (IGROV1 ovarian): 55.2 µM
TGI (RPMI-8226 leukemia): 69.7 µM
TGI (SK-MEL-2 melanoma): > 100 µM
TGI (OVCAR-3 ovarian): > 100 µM
TGI (COLO 205 colon): > 100 µM
TGI (NCI-H23 lung): 88.7 µM
TGI (SK-OV-3 ovarian): > 100 µM
TGI (MCF7 breast): > 100 µM
TGI (LOX IMVI melanoma): > 100 µM
TGI (HOP-92 NSCLC): > 100 µM
TGI (UACC-257 melanoma): > 100 µM
TGI (HL-60(TB) leukemia): 72.1 µM
TGI (K-562 leukemia): > 100 µM
TGI (NCI-H226 lung): 56.6 µM
TGI (SNB-19 CNS): > 100 µM
TGI (U251 CNS): > 100 µM
TGI (UO-31 renal): > 100 µM
TGI (SF-539 CNS): 90.2 µM
TGI (HCT-15 colon): > 100 µM
TGI (NCI-H460 lung): > 100 µM
TGI (OVCAR-5 ovarian): > 100 µM
TGI (NCI/ADR-RES ovarian): > 100 µM
TGI (SK-MEL-28 melanoma): > 100 µM
TGI (MDA-N): > 100 µM
TGI (PC-3 prostate): > 100 µM
TGI (EKVX NSCLC): > 100 µM
TGI (786-0 renal): 34.5 µM
TGI (MDA-MB-435): > 100 µM
TGI (MDA-MB-231 breast): > 100 µM
TGI (BT-549 breast): > 100 µM
